Data on 3 compounds can be found in patent publication US12070031B2 (priority 2020, dated 2024).

Where a name gives a salt, the structure may show the parent alone.

The subject of data set [1] is tomato plants (Solanum lycopersicum). The experiment in a line: Phytotoxicity after foliar application. Type of data set: in vivo. Further details: key to Phytotoxicity, Tomato sp.: No toxicity (−); symptoms appear on less than 5% of the leaves was rated as minimal (+); 5 to 50% was rated as moderate (++); above 50% was rated as severe (+++). The settings on record: for Phytotoxicity, Tomato sp.: foliar, 72 h. The procedure: The phytotoxicity of the ZnNP adjuvant with and without streptomycin was tested on tomato plants (Solanum lycopersicum, model fruit plant, 11 cm tall) obtained from Home Depot. The ZnNP treatments were applied directly on plant leaves (foliar application) using a hand-held sprayer until excess liquid starts dripping. Foliar application was conducted at 8:00 a.m. in a greenhouse setting to simulate field conditions. Treated plants were then placed in a growth chamber, Panasonic environmental test chamber (model MLR-352H) with summer settings (34° C., 60-80% RH). Phytotoxicity was evaluated 72 h post application. Digital photographs of treated leaves were taken for the visual assessment (phenotypic) plant tissue damage. Parallel treatments were done with copper sulfate at 1000 μg/mL (positive control) and DI water (untreated control, UTC) to compare phytotoxicity level with the ZnNP treatments. The appearance of brown necrotic spots, chlorosis, and necrosis on the leaves is indicative of plant tissue damage (i.e. phytotoxicity). Phytotoxicity was rated as follows: No toxicity (−), symptoms appear on less than 5% of the leaves was rated as minimal (+), 5 to 50% was rated as moderate (++), and above 50% was rated as severe (+++). Phytotoxicity studies were carried out in triplicate for each treatment and concentration.

For data set [2], the system named is E. coli. The experiment in a line: MIC by broth microdilution (CLSI) with resazurin. It counts as cell-based, Escherichia coli. The procedure: (§1) The antimicrobial efficacy of the ZnNP-Strep and controls were evaluated by the antimicrobial assay methods as previously described. Briefly, Microplate Alamar Blue Assay (MABA) was performed to initially screen the antimicrobial efficacy of the NPs. Then, the minimum inhibitory concentration (MIC) was determined by broth microdilution method in accordance with the guidelines of the Clinical and Laboratory Standards Institute (CLSI). As per the CLSI requirements, from a starter culture of 0.5 McFarland Standard, 5×10^5 CFU/well was added to all the wells. […] The accuracy of the MIC determination was improved by adding 10 μL of resazurin dye (0.0125%, w/v) per 100 μL well volume and observing color changes (from blue to pink for live organisms).

The test system of data set [3] is P. syringae. The experiment in a line: MIC by broth microdilution (CLSI) with resazurin. It counts as cell-based, Pseudomonas syringae. The procedure: as §1
A general note: In broth dilution the organism is exposed to a series of concentrations in liquid medium.

For data set [4], the system named is X. alfalfae. The experiment in a line: MIC by broth microdilution (CLSI) with resazurin. It counts as cell-based, Xanthomonas alfalfae subsp. citrumelonis. As for the experimental part:
as §1

Data set [5] concerns X. alfalfae. The experiment in a line: MIC of ZnNP-Strep after dialysis (simulated rainfall). It counts as cell-based, Xanthomonas alfalfae subsp. citrumelonis. The settings on record: Xanthomonas alfalfae; dialysis time N/A; relative to streptomycin concentration. The procedure:
as §1
The antimicrobial efficacy of ZnNP-Strep was also studied after dialysis of the particles. […] The particles were dialyzed for 0, 1, 3, and 12 h and the remaining streptomycin loaded on the particles for each timepoint was quantified by LCMS by diluting the particles with 1% HCl and analyzing them with the previously described method. After streptomycin quantification the particles were diluted to 500 ppm streptomycin and their antimicrobial efficacy was assessed via MIC assay described above. The minimum bactericidal concentration (MBC) of the particles was also assessed by performing colony forming unit (CFU) plating. […]

The test system of data set [6] is X. alfalfae. The experiment in a line: MBC by CFU plating after dialysis. It counts as cell-based, Xanthomonas alfalfae subsp. citrumelonis. As to conditions: Xanthomonas alfalfae; dialysis time N/A; relative to streptomycin concentration. As for the experimental part:
The antimicrobial efficacy of ZnNP-Strep was also studied after dialysis of the particles. The particles were dialyzed to remove any unbound streptomycin and simulate the effect of rainfall on the particles in field conditions. […] The particles were dialyzed for 0, 1, 3, and 12 h and the remaining streptomycin loaded on the particles for each timepoint was quantified by LCMS by diluting the particles with 1% HCl and analyzing them with the previously described method. After streptomycin quantification the particles were diluted to 500 ppm streptomycin and their antimicrobial efficacy was assessed via MIC assay described above. The minimum bactericidal concentration (MBC) of the particles was also assessed by performing colony forming unit (CFU) plating. After 24 h incubation of bacteria with the samples, 100 μL of the treated bacteria was then transferred to nutrient agar plates. They were then spread dry using sterile spreaders (Fisher Scientific) and incubated for 48 h to check for bacterial growth at each concentration tested.

The mark [7] stands for this setting: 24 h incubation, concentration active.
Where [8] appears, read: highest concentration tested, 1000 μg/mL.

As for `O=S(=O)([O-])[O-].[Cu+2]` [Copper sulfate, copper sulfate], in data set [1] (1000 μg/mL Cu), the “Phytotoxicity, Tomato sp.” value was “+++ (above 50% was rated as severe (+++))”. Moreover, the “signs of phytotoxicity (visual)” value in data set [1] (72 hrs after foliar application) is reported as “many brown spots”.
As to `CC(=O)N[C@@H](CS)C(=O)O` [NAC, N-acetylcysteine], in data set [2] (setting [7]), the “E. coli (MIC)” value is “No inhibition”. For the same compound, the growth inhibitory effect result in data set [2] (setting [8]), in data set [3] (setting [8]) and in data set [4] (setting [8]) was “no growth inhibitory effect” in each case. Further, in data set [3] (setting [7]), the “P. syringae (MIC)” value is recorded as “No inhibition”. Moreover, the “X. alfalfae (MIC)” value in data set [4] (setting [7]) is on record as “No inhibition”.
As to `[H]/N=C(/N)N[C@H]1[C@H](O)[C@@H](O)[C@H](O[C@@H]2O[C@@H](C)[C@](O)(C=O)[C@H]2O[C@@H]2O[C@@H](CO)[C@H](O)[C@@H](O)[C@@H]2NC)[C@@H](N/C(N)=N\[H])[C@@H]1O` [Streptomycin sulfate, streptomycin sulfate], the MIC (usually the least concentration at which growth counts as inhibited) is 1 µg/mL in data set [5]; 6 µg/mL in data set [2] (Escherichia coli, 24 h incubation, concentration active); 2 µg/mL in data set [3] (Pseudomonas syringae, 24 h incubation, concentration active); 2 µg/mL in data set [4] (Xanthomonas alfalfae, 24 h incubation, concentration active). The “Phytotoxicity, Tomato sp.” value in data set [1] (1000 μg/mL Strep) is “−”. Besides, the minimum bactericidal concentration (MBC) (usually the lowest tested concentration that kills the bacteria rather than only halting them) in data set [6] amounted to 16 µg/mL.
